These are literature values, as cited in patent US6211364A, “Process for preparing indane-like compounds” (Eli Lilly and Company, priority 1999, dated 2001).

Each structure is given as a SMILES string. pKd: −log10 of the molar value. Like-named read-outs stand apart in the source and are kept apart here.

One data set deals with muscarinic receptor. The note with it: muscarinic receptor in the CNS, cited from earlier work.
The subject of data set [1] is M1 -site muscarinic receptors. The note with it: M1 -site versus M2 -sites; cited from earlier work.

In the case of `C[N+](C)(C)CC#CCN1CCCC1=O` [3 H-Oxo], the pKd at muscarinic receptor (high affinity site, read-out: affinity of 3H-Oxo, first of three labeled sites) was 8.74; at muscarinic receptor (medium affinity site, read-out: affinity of 3H-Oxo, second of three labeled sites), 7.70; at muscarinic receptor (third site, not determined under the present conditions, read-out: affinity of 3H-Oxo, third of three labeled sites) it was 5.52.

In the case of `CN1CCN(CC(=O)N2c3ccccc3C(=O)Nc3cccnc32)CC1` [Pirenzepine, pirenzepine, [N-methyl-^3 H]], the “selectivity of pirenzepine binding for muscarinic receptor subtype” value in data set [1] is given as “selective for M1 -sites”.
